Assay results published in patent US8735414B2 (priority 2009, dated 2014).

How the values were obtained:
[1] = test system: bicistronic HCV replicon (replicon RNA, GenBank Accession No. AJ242654); test: HCV Replicon Assay; format: cell-based; details: Hepatitis C virus, 72 h, read-out: Replicon IC50

SMILES	IC50 [1]	melting point
Cc1cc(F)c2c(C#N)c(-c3ccc(S(=O)(=O)NC4(C(F)(F)F)CC4)cn3)n(C3CCCC3)c2c1 [compound 628, 6-(3-cyano-1-cyclopentyl-4-fluoro-6-methyl-1H-indol-2-yl)-N-[1-(trifluoromethyl)cyclopropyl]pyridine-3-sulfonamide]	< 500 nM	242 to 246 °C
Cc1cc2c(C#N)c(-c3ncc(S(=O)(=O)NC(C)C)cn3)n(C3CCC3)c2cc1Cl [compound 507, 2-(6-chloro-3-cyano-1-cyclobutyl-5-methyl-1H-indol-2-yl)-N-(propan-2-yl)pyrimidine-5-sulfonamide]	500 to 2000 nM	217 to 218 °C
C[C@@H](NS(=O)(=O)c1ccc(-c2c(C#N)c3ccc(Cl)cc3n2C2CCCCC2)nc1)C(F)(F)F [compound 514, 6-(6-chloro-3-cyano-1-cyclohexyl-1H-indol-2-yl)-N-[(2R)-1,1,1-trifluoropropan-2-yl]pyridine-3-sulfonamide]	< 500 nM	218 to 223 °C
Cc1cc2c(cc1F)c(C#N)c(-c1ccc(S(=O)(=O)NC(C)(C)C(F)(F)F)cn1)n2C1CCC1 [compound 539, 6-(3-cyano-1-cyclobutyl-5-fluoro-6-methyl-1H-indol-2-yl)-N-(1,1,1-trifluoro-2-methylpropan-2-yl)pyridine-3-sulfonamide]	< 500 nM	238 to 243 °C
CC(C)NS(=O)(=O)c1ccc(-c2c(C#N)c3ccc(OC(F)(F)F)cc3n2CC2CC2)nc1 [compound 11, 6-[3-cyano-1-(cyclopropylmethyl)-6-(trifluoromethoxy)-1H-indol-2-yl]-N-(propan-2-yl)pyridine-3-sulfonamide]	500 to 2000 nM	203 to 205 °C
Cc1ccc2c(c1)c(C#N)c(-c1ccc(S(=O)(=O)NC(CF)CF)cn1)n2C1CCCCC1 [compound 199, 6-(3-cyano-1-cyclohexyl-5-methyl-1H-indol-2-yl)-N-(1,3-difluoropropan-2-yl)pyridine-3-sulfonamide]	< 500 nM	210 to 215 °C
Cc1cc2c(cc1F)c(C#N)c(-c1ccc(S(=O)(=O)N[C@@H](C)C(F)(F)F)cn1)n2-c1ccc([N+](=O)[O-])cn1 [compound 744, 6-[3-cyano-5-fluoro-6-methyl-1-(5-nitropyridin-2-yl)-1H-indol-2-yl]-N-[(2S)-1,1,1-trifluoropropan-2-yl]pyridine-3-sulfonamide]	< 500 nM	260 to 263 °C
CCc1cc2c(cc1F)c(C#N)c(-c1ccc(S(=O)(=O)N(c3ncccn3)C3(C)CC3)cn1)n2-c1ncccn1 [compound 861, 6-[3-cyano-6-ethyl-5-fluoro-1-(pyrimidin-2-yl)-1H-indol-2-yl]-N-(1-methylcyclopropyl)-N-(pyrimidin-2-yl)pyridine-3-sulfonamide]	2000 to 5000 nM	193 to 200 °C
Cc1ccc2c(C#N)c(-c3ncc(S(=O)(=O)NC(CF)CF)cn3)n(C(C)C)c2c1 [compound 134, 2-[3-cyano-6-methyl-1-(propan-2-yl)-1H-indol-2-yl]-N-(1,3-difluoropropan-2-yl)pyrimidine-5-sulfonamide]	< 500 nM	213 to 215 °C
CC(C)(C)S(=O)(=O)Nc1ccc(-c2c(C(N)=O)c3c(F)cc(C4CC4)cc3n2-c2ccc(F)cc2)cn1 [compound 1105, 2-{6-[(tert-butylsulfonyl)amino]pyridin-3-yl}-6-cyclopropyl-4-fluoro-1-(4-fluorophenyl)-1H-indole-3-carboxamide]	< 500 nM	290 to 295 °C
CCc1cc2c(cc1F)c(C#N)c(-c1ncc(S(=O)(=O)N[C@@H](C)C(F)(F)F)cc1C)n2-c1ccccn1 [compound 870, 6-[3-cyano-6-ethyl-5-fluoro-1-(pyridin-2-yl)-1H-indol-2-yl]-5-methyl-N-[(2S)-1,1,1-trifluoropropan-2-yl]pyridine-3-sulfonamide]	< 500 nM	195 to 198 °C
CC(C)c1ccc2c(C#N)c(-c3ccc(S(=O)(=O)NC(CF)CF)cn3)n(C(C)C)c2c1 [compound 456, 6-[3-cyano-1,6-di(propan-2-yl)-1H-indol-2-yl]-N-(1,3-difluoropropan-2-yl)pyridine-3-sulfonamide]	< 500 nM	165 to 173 °C
COc1ccc2c(C#N)c(-c3ccc(S(=O)(=O)N[C@@H](C)C(F)(F)F)cn3)n(C3CCCCC3)c2c1 [compound 519, 6-(3-cyano-1-cyclohexyl-6-methoxy-1H-indol-2-yl)-N-[(2S)-1,1,1-trifluoropropan-2-yl]pyridine-3-sulfonamide]	< 500 nM	197 to 204 °C
C[C@@H](NS(=O)(=O)c1ccc(-c2c(C(N)=O)c3cc(F)c(C4CC4)cc3n2C2CCCC2)nc1)C(F)(F)F [compound 829, 1-cyclopentyl-6-cyclopropyl-5-fluoro-2-(5-{[(2R)-1,1,1-trifluoropropan-2-yl]sulfamoyl}pyridin-2-yl)-1H-indole-3-carboxamide]	< 500 nM	233 to 234 °C
Cc1ccc2c(c1)c(C#N)c(-c1ncc(S(=O)(=O)N[C@@H](C)C(F)(F)F)cn1)n2C1CCCC1 [compound 391, 2-(3-cyano-1-cyclopentyl-5-methyl-1H-indol-2-yl)-N-[(2S)-1,1,1-trifluoropropan-2-yl]pyrimidine-5-sulfonamide]	< 500 nM	180 to 185 °C
CC1(NS(=O)(=O)c2ccc(-c3c(C#N)c4cc(Cl)c(OC(F)F)cc4n3C3CCC3)nc2)CC1 [compound 658, 6-[5-chloro-3-cyano-1-cyclobutyl-6-(difluoromethoxy)-1H-indol-2-yl]-N-(1-methylcyclopropyl)pyridine-3-sulfonamide]	< 500 nM	218 to 226 °C
Cc1c(F)cc2c(C#N)c(-c3ncc(S(=O)(=O)NC(CF)CF)cn3)n(C3CCCC3)c2c1F [compound 656, 2-(3-cyano-1-cyclopentyl-5,7-difluoro-6-methyl-1H-indol-2-yl)-N-(1,3-difluoropropan-2-yl)pyrimidine-5-sulfonamide]	< 500 nM	230 to 234 °C
CSc1cc2c(cc1F)c(C#N)c(-c1ccc(S(=O)(=O)N[C@@H](C)C(F)(F)F)cn1)n2C1CCC1 [compound 772, 6-[3-cyano-1-cyclobutyl-5-fluoro-6-(methylsulfanyl)-1H-indol-2-yl]-N-[(2S)-1,1,1-trifluoropropan-2-yl]pyridine-3-sulfonamide]	< 500 nM	201 to 203 °C
C[C@@H](NS(=O)(=O)c1ccc(-c2c(C#N)c3cc(F)c(OC(F)F)cc3n2CC2CC2)nc1)C(F)(F)F [compound 789, 6-[3-cyano-1-(cyclopropylmethyl)-6-(difluoromethoxy)-5-fluoro-1H-indol-2-yl]-N-[(2R)-1,1,1-trifluoropropan-2-yl]pyridine-3-sulfonamide]	< 500 nM	148 to 153 °C
C[C@H](NS(=O)(=O)c1ccc(-c2c(C#N)c3ccc(OC(F)(F)F)cc3n2C2CCCCC2)nc1)C1CC1 [compound 305, 6-[3-cyano-1-cyclohexyl-6-(trifluoromethoxy)-1H-indol-2-yl]-N-[(1S)-1-cyclopropylethyl]pyridine-3-sulfonamide]	< 500 nM	195 to 197 °C
